Laboratory results from patent US20150141506A1, “INDANE DIMERS FOR USE IN THE TREATMENT OF AUTOIMMUNE INFLAMMATORY DISEASE” (Venantius Limited, priority 2012, published 2015).

Test system: IL2 release from Jurkat cells
Assay: Effect of compounds on IL-2 secretion in T lymphocytes (Jurkat 6.1, anti-CD3/anti-CD28 stimulated, ELISA)
Format: cell-based
Details: for IL-2 production, absolute values: 30 min pre-treatment, DMSO control 320.67 (plate 2), 338.25 (plate 3); for IL-2 production, absolute values / activity at 1 µM / activity at 10 µM: 24 h; for activity at 1 µM / activity at 10 µM: Homo sapiens, Jurkat, read-out: IL2 release as percentage of anti-CD3/CD28 stimulated release in presence of DMSO, Mean; for effect on IL2 release, in words: 1 and 10 μM
Description: The T cell line Jurkat 6.1 (ATCC) was used. Cells were pre-treated for 30 min with 1 μM or 10 μM of the respective compound and then stimulated with plate-bound anti-CD3 (BD Pharmingen) and anti-CD28 (AnCell). DMSO was used as vehicle control. […] After 24 hs the supernatant was collected and IL-2 secretion was measured by ELISA.
Compounds were prepared by dissolution in DMSO to yield final concentrations of 1 and 10 μg/ml

SMILES | IL-2 production, absolute values (compound 1 uM) | IL-2 production, absolute values (compound 10 uM) | activity at 1 µM | activity at 10 µM | effect on IL2 release, in words
CC(C)[C@H](N)C(=O)O[C@H]1c2ccccc2C[C@]1(Cc1ccc(C(=O)O)cc1)C1=Cc2ccccc2C1 [Compound 25, 4-{[(1′R,2′R)-1′-(L-valyloxy)-1′,3′-dihydro-1H,2′H-2,2′-biinden-2′-yl]methyl}benzoic acid] | 208.38 pg/mL | 174.25 pg/mL | – | – | –
CC(C)C[C@H](N)C(=O)O[C@H]1c2ccccc2C[C@]1(Cc1ccc(C(=O)NCCO)cc1)C1=Cc2ccccc2C1 [Compound 36, (1R,2R)-2-{4-[(2-hydroxyethyl)carbamoyl]benzyl}-2,3-dihydro-1H,1′H-2,2′-biinden-1-yl L-leucinate] | 207.38 pg/mL | 138.13 pg/mL | 96% | 56.3% | –
CNC(=O)c1ccc(C[C@@]2(C3=Cc4ccccc4C3)Cc3ccccc3[C@H]2OC(=O)[C@@H](N)CC(C)C)cc1 [Compound 44, (1S,2S)-2-[4-(methylcarbamoyl)benzyl]-2,3-dihydro-1H,1′H-2,2′-biinden-1-yl L-leucinate] | 72.50 pg/mL | 12.43 pg/mL | 76.2% | 21% | –
CCCOC(=O)c1ccc(C[C@@]2(C3=Cc4ccccc4C3)Cc3ccccc3[C@H]2O)cc1 [Compound 19, propyl 4-(((1S,2S)-1-hydroxy-2,3-dihydro-1H,1′H-[2,2′-biinden]-2-yl)methyl)benzoate] | 174.44 pg/mL | 81.00 pg/mL | – | – | –
CCOC(=O)c1ccc(C[C@@]2(C3=Cc4ccccc4C3)Cc3ccccc3[C@H]2OC(=O)[C@@H](N)CC(C)C)cc1 [Compound 40, ethyl 4-(((1S,2S)-1-(((S)-2-amino-4-methylpentanoyl)oxy)-2,3-dihydro-1H,1′H-[2,2′-biinden]-2-yl)methyl)benzoate] | 84.86 pg/mL | 12.71 pg/mL | 82.6% | 20.9% | –
CC(C)C[C@H](N)C(=O)O[C@@H]1c2ccccc2C[C@@]1(Cc1ccc(C(N)=O)cc1)C1=Cc2ccccc2C1 [Compound 42, (1S,2S)-2-(4-carbamoylbenzyl)-2,3-dihydro-1H,1′H-2,2′-biinden-1-yl L-leucinate] | 77.71 pg/mL | 49.57 pg/mL | 76.1% | 30% | –
CC(C)C[C@H](N)C(=O)O[C@@H]1c2ccccc2C[C@@]1(Cc1ccc(C(=O)O)cc1)C1=Cc2ccccc2C1 [Compound 28, 4-{[(1′S,2′S)-1′-(L-leucyloxy)-1′,3′-dihydro-1H,2′H-2,2′-biinden-2′-yl]methyl}benzoic acid] | 214.75 pg/mL | 135.63 pg/mL | – | – | –
CC[C@H](C)[C@H](N)C(=O)O[C@@H]1c2ccccc2C[C@@]1(Cc1ccc(C(=O)O)cc1)C1=Cc2ccccc2C1 [Compound 30, 4-{[(1′S,2′S)-1′-(L-isoleucyloxy)-1′,3′-dihydro-1H,2′H-2,2′-biinden-2′-yl]methyl}benzoic acid] | 191.63 pg/mL | 174.50 pg/mL | – | – | –
CNC(=O)c1ccc(C[C@@]2(C3=Cc4ccccc4C3)Cc3ccccc3[C@H]2O)cc1 [Compound 22, 4-{[(1′S,2′S)-1′-hydroxy-1′,3′-dihydro-1H,2′H-2,2′-biinden-2′-yl]methyl}-N-methylbenzamide] | 198.56 pg/mL | 113.33 pg/mL | – | – | –
CN(C)C(=O)c1ccc(C[C@@]2(C3=Cc4ccccc4C3)Cc3ccccc3[C@H]2O)cc1 [Compound 23, 4-{[(1′S,2′S)-1′-hydroxy-1′,3′-dihydro-1H,2′H-2,2′-biinden-2′-yl]methyl}-N,N-dimethylbenzamide] | 191.44 pg/mL | 193.56 pg/mL | – | – | –
CC[C@H](C)[C@H](N)C(=O)O[C@H]1c2ccccc2C[C@]1(Cc1ccc(C(=O)O)cc1)C1=Cc2ccccc2C1 [Compound 26, 4-{[(1′R,2′R)-1′-(L-isoleucyloxy)-1′,3′-dihydro-1H,2′H-2,2′-biinden-2′yl]methyl}benzoic acid] | 202.25 pg/mL | 192.63 pg/mL | – | – | –
NCC(=O)O[C@H]1c2ccccc2C[C@]1(Cc1ccc(C(=O)O)cc1)C1=Cc2ccccc2C1 [Compound 27, 4-{[(1′R,2′R)-1′-(glycyloxy)-1′,3′-dihydro-1H,2′H-2,2′-biinden-2′-yl]methyl}benzoic acid] | 350.13 pg/mL | 172.88 pg/mL | – | – | potentiates release of IL2
CC(C)C[C@H](N)C(=O)O[C@@H]1c2ccccc2C[C@@]1(Cc1ccc(C(=O)N(C)C)cc1)C1=Cc2ccccc2C1 [Compound 45, (1S,2S)-2-[4-(dimethylcarbamoyl)benzyl]-2,3-dihydro-1H,1′H-2,2′-biinden-1-yl L-leucinate] | 56.07 pg/mL | 14.29 pg/mL | 51.5% | 1.5% | greatest inhibition of IL2 release
O=C(Nc1ccc(O)c(C(=O)O)c1)c1ccc(C[C@]2(C3=Cc4ccccc4C3)Cc3ccccc3[C@@H]2O)cc1 [Compound 46, 2-hydroxy-5-(4-(((1R,2R)-1-hydroxy-2,3-dihydro-1H,1′H-[2,2′-biinden]-2-yl)methyl)benzamido)benzoic acid] | 92.21 pg/mL | 72.07 pg/mL | – | – | –
